Laboratory results as given in patent US10799605B2 (3B PHARMACEUTICALS GMBH, priority 2014, dated 2020).

Assays:
KV channel = experiment: ExpresSProfile: KV channel, antagonist radioligand; type: binding; conditions: Reference Compound
Cl-channel (GABA-gated) = experiment: ExpresSProfile: Cl-channel, antagonist radioligand; type: binding; conditions: Reference Compound
NTR1 [1] = target: T1, NTR1 (Homo sapiens (Human), UniProt P30989); experiment: Radioligand binding assay NTR1 (example part II); conditions: 0.05 nM 125I-(Tyr3-neurotensin), 60 min at 4° C.; read-out: IC50 [nM] RLB
T1 sequence (P30989 whole entry): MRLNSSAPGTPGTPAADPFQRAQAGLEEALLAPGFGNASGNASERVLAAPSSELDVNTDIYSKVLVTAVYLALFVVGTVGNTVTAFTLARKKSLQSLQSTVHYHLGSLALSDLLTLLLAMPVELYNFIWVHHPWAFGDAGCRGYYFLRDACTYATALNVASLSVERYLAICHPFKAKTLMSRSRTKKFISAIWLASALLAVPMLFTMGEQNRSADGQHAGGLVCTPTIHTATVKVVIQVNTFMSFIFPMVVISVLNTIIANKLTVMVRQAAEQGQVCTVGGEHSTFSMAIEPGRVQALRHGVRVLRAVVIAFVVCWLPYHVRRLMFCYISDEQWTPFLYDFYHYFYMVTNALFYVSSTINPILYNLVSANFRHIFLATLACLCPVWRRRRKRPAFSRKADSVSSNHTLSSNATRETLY
Method: In order to determine the binding affinity of compounds comprising a radiolabel for NTR1, a radioligand binding assay was carried out. A radioligand is a radioactive biochemical substance that is used for diagnosis or for research-oriented study of cellular receptor systems of the body. In […] systems it is often used to quantify the binding of a test molecule to the binding site of radioligand. The higher the affinity of the molecule, the more radioligand is displaced from the binding site. The amount of bound radioligand can be measured by scintillation counting and thereby quantified. This assay is commonly used to calculate binding constants of molecules to receptors.
The NTR1 radioligand binding assay was performed by Cerep (Celle l'Evescault, France; Catalog reference 0109) according to Vita et al., FEBS Lett., 1993, 317, 139-142. NTR1 was prepared from CHO cells recombinantly expressing the human receptor and incubated with 0.05 nM ^125I-(Tyr^3-neurotensin) and serial dilutions of the test compounds. […] The result for each test compound is expressed as IC50 concentration and provides a measure for the affinity of the test compound for NTR1.

NTR1 [2] = target: T1, NTR1; experiment: Functional Ca2+ mobilisation assay (example part II); type: cell-based; conditions: antagonist assay
Description: Ca^2+ ions are usually kept at nanomolar levels in the cytosol of cells, and act in a number of signal transduction pathways as second messengers. […] Changes in calcium ion concentration in standard assay protocols can be readily detected with fluorescent dyes that emit light when changes in intracellular Ca2^+ ion concentration occur. Given the transient nature of these responses, they are often read with instrumentation that has ‘inject and read’ capability.
HT29 or NTR1-expressing HEK293 cells were trypsinized and seeded into black flat clear-bottom 96-well plates (Corning, Amsterdam, The Netherlands) at 6×10^5 cells per well. After 24 h incubation at 37° C. and 5% CO2, cells were washed twice with wash buffer (130 mM NaCl, 5 mM KCl, 10 mM Hepes, 2 mM CaCl2, 10 mM Glucose, pH 7.4) and loaded with 100 μl of Ca5 dye (Molecular Devices, Biberach, Germany) for 1 h at 37° C. and 5% CO2. For agonist assays, serial dilutions of agonistic substances were added to the cells loaded with dye and the change of the fluorescent signal was recorded continually for approx. 90 s using a FlexStation II (Molecular Devices, Biberach, Germany). Addition of wash buffer served as a control. Thus, EC50 concentrations for each compound were computed and provided a measure for the potency of the substance. For antagonist assays, cells loaded with 100 μl of Ca5-dye were pre-incubated with serial dilutions of antagonistic substances for 30 min, before the EC80-concentration of agonist was added to the cells and the change of the fluorescent signal was recorded continually for approx. 90 s. Thus, IC50 concentrations were computed for each compound and provided a measure for the inhibitory activity of the compounds at the NTR1.

MT1 (ML1A) (h) = MT1 (ML1A) (h) (Homo sapiens (Human), UniProt P48039); experiment: ExpresSProfile: melatonin receptor 1, agonist radioligand; type: binding; conditions: Reference Compound
Sequence of MT1 (ML1A) (h) (P48039 whole entry): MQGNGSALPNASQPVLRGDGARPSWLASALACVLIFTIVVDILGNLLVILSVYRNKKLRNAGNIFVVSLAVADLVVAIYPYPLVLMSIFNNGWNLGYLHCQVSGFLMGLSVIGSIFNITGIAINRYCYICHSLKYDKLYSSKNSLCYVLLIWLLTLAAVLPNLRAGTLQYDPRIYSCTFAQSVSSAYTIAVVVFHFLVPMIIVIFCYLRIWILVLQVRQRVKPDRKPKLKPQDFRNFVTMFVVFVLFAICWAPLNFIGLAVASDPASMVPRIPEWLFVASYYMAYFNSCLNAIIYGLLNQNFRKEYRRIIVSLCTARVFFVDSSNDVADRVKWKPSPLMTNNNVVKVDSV

M3 (h) = M3 (h) (Homo sapiens (Human), UniProt P20309); experiment: ExpresSProfile: muscarinic receptor 3, antagonist radioligand; type: binding; conditions: Reference Compound
Sequence of M3 (h) (P20309 whole entry): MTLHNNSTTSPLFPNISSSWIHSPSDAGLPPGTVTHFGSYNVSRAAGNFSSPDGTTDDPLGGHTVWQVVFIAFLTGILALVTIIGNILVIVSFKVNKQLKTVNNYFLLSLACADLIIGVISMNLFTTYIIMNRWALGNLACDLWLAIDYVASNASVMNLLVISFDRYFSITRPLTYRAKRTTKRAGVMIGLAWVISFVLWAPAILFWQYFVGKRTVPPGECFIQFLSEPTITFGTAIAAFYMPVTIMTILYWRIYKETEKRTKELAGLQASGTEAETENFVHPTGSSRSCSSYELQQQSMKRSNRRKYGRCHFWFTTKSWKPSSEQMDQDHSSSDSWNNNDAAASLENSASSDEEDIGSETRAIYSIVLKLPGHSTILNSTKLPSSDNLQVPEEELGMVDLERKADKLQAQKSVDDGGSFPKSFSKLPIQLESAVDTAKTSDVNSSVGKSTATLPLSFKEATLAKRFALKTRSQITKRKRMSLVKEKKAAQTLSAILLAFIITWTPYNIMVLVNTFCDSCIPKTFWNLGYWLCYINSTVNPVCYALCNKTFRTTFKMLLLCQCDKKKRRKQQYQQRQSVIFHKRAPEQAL

5-HT3 (h) = 5-HT3 (h) (Homo sapiens (Human), UniProt P46098); experiment: ExpresSProfile: 5-hydroxytryptamine channel 3, antagonist radioligand; type: binding; conditions: Reference Compound
Sequence of 5-HT3 (h) (P46098 24-478): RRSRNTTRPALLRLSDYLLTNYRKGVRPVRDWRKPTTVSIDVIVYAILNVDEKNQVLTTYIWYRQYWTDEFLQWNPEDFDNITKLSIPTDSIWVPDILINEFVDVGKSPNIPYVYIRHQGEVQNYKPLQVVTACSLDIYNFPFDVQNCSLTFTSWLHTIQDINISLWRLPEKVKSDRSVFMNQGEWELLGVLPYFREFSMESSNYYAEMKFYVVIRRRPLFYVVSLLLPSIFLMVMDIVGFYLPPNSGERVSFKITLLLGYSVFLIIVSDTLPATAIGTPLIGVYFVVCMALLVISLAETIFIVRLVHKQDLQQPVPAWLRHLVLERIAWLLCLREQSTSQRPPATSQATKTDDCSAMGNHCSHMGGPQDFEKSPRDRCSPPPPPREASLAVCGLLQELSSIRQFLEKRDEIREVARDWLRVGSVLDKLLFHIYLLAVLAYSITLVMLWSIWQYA

M2 (h) = M2 (h) (Homo sapiens (Human), UniProt P08172); experiment: ExpresSProfile: muscarinic receptor 2, antagonist radioligand; type: binding; conditions: Reference Compound
SKCa channel = experiment: ExpresSProfile: SKCa channel, antagonist radioligand; type: binding; conditions: Reference Compound
mu (MOP) (h) = mu (MOP) (h) (Homo sapiens (Human), UniProt P35372); experiment: ExpresSProfile: mu opioid receptor, agonist radioligand; type: binding; conditions: Reference Compound
Sequence of mu (MOP) (h) (P35372 whole entry): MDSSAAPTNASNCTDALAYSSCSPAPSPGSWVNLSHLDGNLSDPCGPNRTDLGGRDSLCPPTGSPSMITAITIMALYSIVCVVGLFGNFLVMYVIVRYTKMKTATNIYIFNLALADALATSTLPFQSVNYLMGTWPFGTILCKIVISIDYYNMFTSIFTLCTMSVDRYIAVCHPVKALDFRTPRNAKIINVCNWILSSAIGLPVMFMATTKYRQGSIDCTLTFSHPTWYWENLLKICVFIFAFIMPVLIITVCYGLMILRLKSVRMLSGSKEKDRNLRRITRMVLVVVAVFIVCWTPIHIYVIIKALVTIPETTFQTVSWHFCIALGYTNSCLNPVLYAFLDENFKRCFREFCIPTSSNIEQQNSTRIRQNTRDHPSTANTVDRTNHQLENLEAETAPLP

NK3 (h) = NK3 (h) (Homo sapiens (Human), UniProt P29371); experiment: ExpresSProfile: neurokinin receptor 3, antagonist radioligand; type: binding; conditions: Reference Compound
Sequence of NK3 (h) (P29371 whole entry): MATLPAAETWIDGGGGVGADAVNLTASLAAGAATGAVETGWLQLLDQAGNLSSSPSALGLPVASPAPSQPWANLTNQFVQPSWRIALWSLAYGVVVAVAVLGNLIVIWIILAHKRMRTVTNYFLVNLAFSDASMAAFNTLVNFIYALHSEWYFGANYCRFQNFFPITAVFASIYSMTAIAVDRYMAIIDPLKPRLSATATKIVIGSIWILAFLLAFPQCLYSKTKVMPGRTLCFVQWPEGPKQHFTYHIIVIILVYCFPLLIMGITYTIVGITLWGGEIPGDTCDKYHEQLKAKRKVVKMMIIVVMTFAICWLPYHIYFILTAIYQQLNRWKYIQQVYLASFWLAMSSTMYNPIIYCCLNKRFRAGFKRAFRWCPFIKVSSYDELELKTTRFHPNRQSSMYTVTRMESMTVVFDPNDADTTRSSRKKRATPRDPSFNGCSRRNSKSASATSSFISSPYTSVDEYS

sst (non-selective) = experiment: ExpresSProfile: somatostatin receptor, agonist radioligand; type: binding; conditions: Reference Compound
dopamine transporter (h) = dopamine transporter (h) (Homo sapiens (Human), UniProt Q01959); experiment: ExpresSProfile: dopamine transporter, antagonist radioligand; type: binding; conditions: Reference Compound
Sequence of dopamine transporter (h) (Q01959 whole entry): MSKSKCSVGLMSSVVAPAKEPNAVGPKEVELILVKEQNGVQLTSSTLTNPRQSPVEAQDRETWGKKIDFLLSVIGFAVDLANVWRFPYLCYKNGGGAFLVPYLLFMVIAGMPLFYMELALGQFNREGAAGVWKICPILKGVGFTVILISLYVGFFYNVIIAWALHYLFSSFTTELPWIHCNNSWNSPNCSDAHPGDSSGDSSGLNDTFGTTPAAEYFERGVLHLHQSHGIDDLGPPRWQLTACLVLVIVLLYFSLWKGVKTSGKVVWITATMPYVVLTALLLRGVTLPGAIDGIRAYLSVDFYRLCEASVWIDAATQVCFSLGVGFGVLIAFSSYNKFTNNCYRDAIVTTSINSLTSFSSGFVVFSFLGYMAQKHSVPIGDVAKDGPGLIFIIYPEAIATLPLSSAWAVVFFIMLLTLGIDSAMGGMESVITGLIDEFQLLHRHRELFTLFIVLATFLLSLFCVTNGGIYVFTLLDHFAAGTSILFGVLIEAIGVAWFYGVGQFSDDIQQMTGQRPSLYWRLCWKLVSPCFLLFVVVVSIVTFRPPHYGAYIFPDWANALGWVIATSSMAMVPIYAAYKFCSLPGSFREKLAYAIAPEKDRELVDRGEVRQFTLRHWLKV

EP4 (h) = EP4 (h) (Homo sapiens (Human), UniProt P35408); experiment: ExpresSProfile: prostaglandin e receptor type 4, agonist radioligand; type: binding; conditions: Reference Compound
Sequence of EP4 (h) (P35408 whole entry): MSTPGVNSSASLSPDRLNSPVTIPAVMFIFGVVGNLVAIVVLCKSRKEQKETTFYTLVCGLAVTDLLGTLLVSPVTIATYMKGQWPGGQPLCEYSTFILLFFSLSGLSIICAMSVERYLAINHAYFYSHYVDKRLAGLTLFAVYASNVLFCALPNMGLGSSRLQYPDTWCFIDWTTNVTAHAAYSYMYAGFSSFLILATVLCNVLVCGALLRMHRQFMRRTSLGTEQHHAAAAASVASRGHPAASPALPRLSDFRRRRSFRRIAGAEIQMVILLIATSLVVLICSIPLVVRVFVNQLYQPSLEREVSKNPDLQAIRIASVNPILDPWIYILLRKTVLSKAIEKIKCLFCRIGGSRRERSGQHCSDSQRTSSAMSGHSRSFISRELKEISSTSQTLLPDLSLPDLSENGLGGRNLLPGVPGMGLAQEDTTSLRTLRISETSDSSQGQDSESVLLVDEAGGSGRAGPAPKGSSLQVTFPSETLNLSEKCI

alpha 2 (non-selective) = experiment: ExpresSProfile: alpha2 adrenergic receptor, antagonist radioligand; type: binding; conditions: Reference Compound
NK2 (h) = NK2 (h) (Homo sapiens (Human), UniProt P21452); experiment: ExpresSProfile: neurokinin receptor 2, agonist radioligand; type: binding; conditions: Reference Compound
Sequence of NK2 (h) (P21452 whole entry): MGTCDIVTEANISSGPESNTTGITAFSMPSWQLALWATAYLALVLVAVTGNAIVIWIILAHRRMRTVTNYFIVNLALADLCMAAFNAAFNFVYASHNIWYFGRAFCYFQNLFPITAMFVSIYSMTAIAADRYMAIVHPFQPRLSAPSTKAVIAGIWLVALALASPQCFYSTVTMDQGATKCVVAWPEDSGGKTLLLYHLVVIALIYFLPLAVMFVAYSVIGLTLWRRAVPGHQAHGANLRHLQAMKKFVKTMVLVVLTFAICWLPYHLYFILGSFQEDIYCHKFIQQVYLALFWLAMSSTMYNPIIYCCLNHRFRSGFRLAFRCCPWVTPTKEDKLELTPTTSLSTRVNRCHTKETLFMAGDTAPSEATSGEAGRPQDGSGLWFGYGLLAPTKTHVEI

alpha 1 (non-selective) = experiment: ExpresSProfile: alpha1 adrenergic receptor, antagonist radioligand; type: binding; conditions: Reference Compound
5-HT1B = 5-HT1B (Rattus norvegicus, UniProt P28564); experiment: ExpresSProfile: 5-hydroxytryptamine receptor 1B, antagonist radioligand; type: binding; conditions: Reference Compound
5-HT6 (h) = 5-HT6 (h) (Homo sapiens (Human), UniProt P50406); experiment: ExpresSProfile: 5-hydroxytryptamine receptor 6, agonist radioligand; type: binding; conditions: Reference Compound
5-HT2B (h) = 5-HT2B (h) (Homo sapiens (Human), UniProt P41595); experiment: ExpresSProfile: 5-hydroxytryptamine receptor 2B, agonist radioligand; type: binding; conditions: Reference Compound
Sequence of 5-HT2B (h) (P41595 whole entry): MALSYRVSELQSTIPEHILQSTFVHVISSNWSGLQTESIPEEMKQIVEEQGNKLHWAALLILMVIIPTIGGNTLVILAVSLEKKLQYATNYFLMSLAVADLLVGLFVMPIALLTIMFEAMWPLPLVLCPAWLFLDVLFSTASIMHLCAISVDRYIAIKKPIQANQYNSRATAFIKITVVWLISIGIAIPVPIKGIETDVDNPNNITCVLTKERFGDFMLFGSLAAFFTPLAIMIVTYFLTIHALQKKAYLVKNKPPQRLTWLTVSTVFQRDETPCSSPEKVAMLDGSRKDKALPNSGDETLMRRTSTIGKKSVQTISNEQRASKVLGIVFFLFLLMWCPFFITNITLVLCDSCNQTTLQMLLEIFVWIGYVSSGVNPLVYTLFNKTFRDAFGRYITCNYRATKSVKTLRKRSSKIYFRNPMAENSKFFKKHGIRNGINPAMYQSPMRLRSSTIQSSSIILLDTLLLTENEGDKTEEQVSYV

5-HT2A (h) = 5-HT2A (h) (Homo sapiens (Human), UniProt P28223); experiment: ExpresSProfile: 5-hydroxytryptamine receptor 2A, antagonist radioligand; type: binding; conditions: Reference Compound

Compound: alpha-dendrotoxin (QPRRKLCILHRNPGRCYDKIPAFYYNQKKKQCERFDWSGCGGNSNRFKTIEECRRTCIG)
- nH Ref (KV channel): 1.7
- Ki (KV channel; read-out: Ki Ref): 0.2 nM

Compound: C=C(C)[C@@H]1[C@H]2OC(=O)[C@@H]1[C@]1(O)C[C@H]3O[C@]34C(=O)O[C@H]2[C@]14C [picrotoxinin]
- nH Ref (Cl-channel (GABA-gated)): 0.9

Compound: COc1cccc(OC)c1-c1cc(C(=O)NC2(C(=O)O)C3CC4CC(C3)CC2C4)nn1-c1ccc(C(=O)N(C)CCCN(C)CCCN(C)C(=O)CCCCCNC(=O)CN2CCN(CC(=O)O)CCN(CC(=O)O)CCN(CC(=O)O)CC2)cc1C(C)C (stereo not drawn) [(IIIc), 2-{[1-(4-{[3-({3-[(DOTA-Ahx)-methyl-amino]-propyl}-methyl-amino)-propyl]-methyl-carbamoyl}-2-isopropyl-phenyl)-5-(2,6-dimethoxy-phenyl)-1H-pyrazole-3-carbonyl]-amino}-adamantane-2-carboxylic acid]
- IC50 (NTR1 [1]): 5.7 nM
- IC50 (NTR1 [2]): 11.8 nM

Compound: COc1cccc(OC)c1-c1cc(C(=O)NC2(C(=O)O)C3CC4CC(C3)CC2C4)nn1-c1ccc(C(=O)N(C)CCCN(C)CCCN(C)C(=O)CCC(=O)NCCCOCCOCCOCCCNC(=O)CCC(C(=O)O)N2CCN(CC(=O)O)CCN(CC(=O)O)CC2)cc1C(C)C (stereo not drawn) [(IIIe), 2-{[1-(4-{[3-({3-[(NODAGA-Ttds)-methyl-amino]-propyl}-methyl-amino)-propyl]-methyl-carbamoyl}-2-isopropyl-phenyl)-5-(2,6-dimethoxy-phenyl)-1H-pyrazole-3-carbonyl]-amino}-adamantane-2-carboxylic acid]
- IC50 (NTR1 [1]): 4.9 nM
- IC50 (NTR1 [2]): 21.4 nM

Compound: COc1cccc(OC)c1-c1cc(C(=O)NC2(C(=O)O)C3CC4CC(C3)CC2C4)nn1-c1ccc(C(=O)N(C)CCCN(C)CCCN(C)C(=O)CCC(C(=O)O)N2CCN(CC(=O)O)CCN(CC(=O)O)CC2)cc1C(C)C (stereo not drawn) [(IIId), 2-{[1-(4-{[3-({3-[(NODAGA)-methyl-amino]-propyl}-methyl-amino)-propyl]-methyl-carbamoyl}-2-isopropyl-phenyl)-5-(2,6-dimethoxy-phenyl)-1H-pyrazole-3-carbonyl]-amino}-adamantane-2-carboxylic acid]
- IC50 (NTR1 [1]): 3.7 nM
- IC50 (NTR1 [2]): 14.5 nM

Compound: COc1ccc2[nH]cc(CCNC(C)=O)c2c1 [melatonin]
- nH Ref (MT1 (ML1A) (h)): 0.9

Compound: C[N+]1(C)CCC(OC(=O)C(c2ccccc2)c2ccccc2)CC1.[I-] [Compound 4-DAMP]
- nH Ref (M3 (h)): 1.1

Compound: CN1[C@@H]2CC[C@H]1C[C@@H](OC(=O)c1cc(Cl)cc(Cl)c1)C2 [MDL 72222]
- nH Ref (5-HT3 (h)): 0.8

Compound: COc1ccccc1CNCCCCCCNCCCCCCCCNCCCCCCNCc1ccccc1OC [methoctramine]
- nH Ref (M2 (h)): 0.9

Compound: CC(C)C[C@@H]1NC(=O)[C@H](C)NC(=O)[C@H]([C@@H](C)O)NC(=O)[C@H](CCC(=O)O)NC(=O)[C@@H]2CCCN2C(=O)[C@H](C)NC(=O)[C@H](CCCCN)NC(=O)[C@@H]2CSSC[C@@H](C(=O)N[C@@H](CCC(N)=O)C(=O)N[C@@H](CCC(N)=O)C(=O)N[C@@H](Cc3cnc[nH]3)C(N)=O)NC(=O)[C@H](CCCNC(=N)N)NC(=O)[C@H](CCCNC(=N)N)NC(=O)[C@H](C)NC(=O)[C@H](CSSC[C@H](N)C(=O)N[C@@H](CC(N)=O)C(=O)N2)NC1=O [apamin]
- nH Ref (SKCa channel): 1.3

Compound: C[C@@H](NC(=O)[C@@H](N)Cc1ccc(O)cc1)C(=O)NCC(=O)N(C)[C@@H](Cc1ccccc1)C(=O)NCCO [DAMGO]
- nH Ref (mu (MOP) (h)): 1.0

Compound: CC[C@H](NC(=O)c1c(C)c(-c2ccccc2)nc2ccccc12)c1ccccc1 [SB 222200]
- nH Ref (NK3 (h)): 0.9

Compound: somatostatin-14
- nH Ref (sst (non-selective)): 0.8
- Ki (sst (non-selective); read-out: Ki Ref): 0.11 nM

Compound: c1ccc2sc(C3(N4CCCCC4)CCCCC3)cc2c1 [BTCP]
- nH Ref (dopamine transporter (h)): 1.0

Compound: COc1cccc(OC)c1-c1cc(C(=O)NC2(C(=O)O)C3CC4CC(C3)CC2C4)nn1-c1ccc(C(=O)N(C)CCCN(C)CCCN(C)C(=O)c2ccc(F)cc2)cc1C(C)C (stereo not drawn) [(IIIg), 2-{[5-(2,6-Dimethoxy-phenyl)-1-(4-{[3-({3-[(4-fluoro-benzoyl)-methyl-amino]-propyl}-methyl-amino)-propyl]-methyl-carbamoyl}-2-isopropyl-phenyl)-1H-pyrazole-3-carbonyl]-amino}-adamantane-2-carboxylic acid]
- IC50 (NTR1 [1]): 2.3 nM
- IC50 (NTR1 [2]): 14.5 nM

Compound: CCCCC[C@H](O)/C=C/[C@H]1[C@H](O)CC(=O)[C@@H]1C/C=C\CCCC(=O)O [PGE2]
- nH Ref (EP4 (h)): 1.1

Compound: COC(=O)[C@@H]1[C@H]2C[C@H]3c4[nH]c5ccccc5c4CCN3C[C@@H]2CC[C@@H]1O [yohimbine]
- nH Ref (alpha 2 (non-selective)): 0.7

Compound: COc1cccc(OC)c1-c1cc(C(=O)NC2(C(=O)O)C3CC4CC(C3)CC2C4)nn1-c1ccc(C(=O)N(CCCNC(=O)CCC(=O)NCCCOCCOCCOCCCNC(=O)CN2CCN(CC(=O)O)CCN(CC(=O)O)CCN(CC(=O)O)CC2)CCCN(C)C)cc1C(C)C (stereo not drawn) [(Vb), 2-{[5-(2,6-Dimethoxy-phenyl)-1-(4-{(3-dimethylamino-propyl)-[3-(DOTA-Ttds-amino)-propyl]-carbamoyl}-2-isopropyl-phenyl)-1H-pyrazole-3-carbonyl]-amino}-adamantane-2-carboxylic]
- IC50 (NTR1 [1]): 2.4 nM
- IC50 (NTR1 [2]): 26 nM

Compound: COc1cccc(OC)c1-c1cc(C(=O)NC2(C(=O)O)C3CC4CC(C3)CC2C4)nn1-c1ccc(C(=O)N(CCCN)CCCN(C)C)cc1C(C)C (stereo not drawn) [(V), 2-{[1-{4-[(3-Amino-propyl)-(3-dimethylamino-propyl)-carbamoyl]-2-isopropyl-phenyl}-5-(2,6-dimethoxy-phenyl)-1H-pyrazole-3-carbonyl]-amino}-adamantane-2-carboxylic acid]
- IC50 (NTR1 [1]): 5.3 nM
- IC50 (NTR1 [2]): 8.95 nM

Compound: CCCC[C@H](NC(=O)[C@H](CC(C)C)NC(=O)CNC(=O)[C@@H](NC(=O)[C@H](Cc1ccccc1)NC(=O)[C@H](CO)NC(=O)[C@@H](N)CC(=O)O)C(C)C)C(N)=O [[Nleu10]-NKA (4-10)]
- nH Ref (NK2 (h)): 0.8

Compound: COc1cc2nc(N3CCN(C(=O)c4ccco4)CC3)nc(N)c2cc1OC [prazosin]
- nH Ref (alpha 1 (non-selective)): 1.2

Compound: NCCc1c[nH]c2ccc(O)cc12 [serotonin]
- nH Ref (5-HT1B): 0.9
- nH Ref (5-HT6 (h)): 0.8

Compound: COc1cc(CC(C)N)c(OC)cc1I (racemic) [(±)DOI]
- nH Ref (5-HT2B (h)): 1.0
- Ki (5-HT2B (h); read-out: Ki Ref): 3.1 nM

Compound: O=C(c1ccc(F)cc1)C1CCN(CCn2c(=O)[nH]c3ccccc3c2=O)CC1 [ketanserin]
- nH Ref (5-HT2A (h)): 1.0

Compound: CNCCCN(C)CCCN(C)C(=O)c1ccc(-n2nc(C(=O)NC3(C(=O)O)C4CC5CC(C4)CC3C5)cc2-c2c(OC)cccc2OC)c(C(C)C)c1 (stereo not drawn) [(III), 2-({5-(2,6-Dimethoxy-phenyl)-1-[2-isopropyl-4-(methyl-{3-[methyl-(3-methylamino-propyl)-amino]-propyl}-carbamoyl)-phenyl]-1H-pyrazole-3-carbonyl}-amino)-adamantane-2-carboxylic acid]
- IC50 (NTR1 [1]): 0.87 nM
- IC50 (NTR1 [2]): 7.54 nM
